Results: US20070015774A1, “Quinazoline derivatives useful in cancer treatment” (Schering Corporation, priority 2005, published 2007)
Like-named read-outs stand apart in the source and are kept apart here.

Molecular target: GST-p53 DNA binding domain (aa 92-aa 312) (Homo sapiens, UniProt P04637)
Test: Scintillation Proximity Assay (SPA), displacement of 3H STANDARD COMPOUND
Settings: for remaining activity at 2 µg/mL: 1 h, 2 ug/mL of drug, read-out: SPA ASSAY % Residual T @ 2 ug/mL of drug (Average of)
Description: Most of the oncogenic mutants of the tumor suppressor protein p53 lack sequence specific DNA binding activity at physiological temperature due to conformational changes in the DNA binding domain. Small molecules and peptide which bind to the p53 DNA binding domain stabilize the conformation and restore DNA binding activity to mutant p53 protein (Science 286, 2507-2510, 1999; PNAS, 99, 937-942, 2002). Using ^3H STANDARD COMPOUND (structure shown below; carbon atom with * is the atom labelled), [drawing 1366] a radio labeled small molecule which binds to p53, and the GST-p53 DNA binding domain (aa 92-aa 312), we have developed a quantitative screening assay. The assay is based on Scintillation Proximity Assay (SPA) technology, developed by Amersham Biosciences to measure molecular interactions. Briefly, the complex of GST-p53, ^3H STANDARD and Glutathione-SPA beads (Amersham Biosciences) are incubated with mixing for 1 hr at room temperature in the presence of the novel compounds to be screened. The signal is read on Microbeta. The compounds which have the ability to displace ^3H STANDARD COMPOUND are selected. Such molecules will stabilize the conformation and restore DNA binding activity to mutant p53 protein.
The above assay was used to determine the ability of the compounds of this invention to directly bind to p53 core and restore DNA binding activity to mutant p53 and the results for selected compounds have been given above in various tables.
A letter rating corresponding to % Residual total binding (T) @ 2 ug/mL of drug (i.e., compound of the present invention) from this assay have been assigned as follows: Compounds having % Residual T values of from 0% to less than 20% have been assigned the letter “A”. Compounds having % Residual T values of from 20% to less than 40% have been assigned the letter “B”. Compounds having % Residual T values of from 40% to less than 80% have been assigned the letter “C”. Compounds having % Residual T values of 80% or higher have been assigned the letter “D”. The exact % Residual T values @ 2 ug/mL for some illustrative compounds are shown below: […]

[1] = residual total binding of 3H STANDARD COMPOUND
[2] = letter rating, number in brackets = number of determinations averaged
[3] = residual total binding of 3H STANDARD COMPOUND, lower is better
[4] = exact values, number in brackets = number of determinations averaged

Chain of GST-p53 DNA binding domain (aa 92-aa 312) (P04637 92-312): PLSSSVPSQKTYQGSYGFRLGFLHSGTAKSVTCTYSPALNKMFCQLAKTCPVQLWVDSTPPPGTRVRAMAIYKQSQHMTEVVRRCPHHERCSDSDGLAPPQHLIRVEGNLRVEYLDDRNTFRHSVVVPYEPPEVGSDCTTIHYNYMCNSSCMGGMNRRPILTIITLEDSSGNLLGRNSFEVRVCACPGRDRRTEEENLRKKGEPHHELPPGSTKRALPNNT

SMILES	remaining activity at 2 µg/mL [2] [%]	further results
CN(C)CCCNc1nc(CN(C)Cc2ccccc2)nc2ccccc12 [Preparative Example 19, N,N-dimethyl-N′-[2-{(N-methyl-N-benzylamino)methyl}quinazolin-4-yl]propane-1,3-diamine]		% Residual T @ 2 ug/mL according to scintillation proximity assay (SPA) [1]: B (% Residual T values of from 20% to less than 40%)
CN(C)CCCNc1nc(CN(C)C2CCC(C(F)(F)F)CC2)nc2ccccc12 (centres unmarked) [38-87]	40 to 80	
CN(C)CCCNc1nc(CN(C)Cc2cccc3ccccc23)nc2ccccc12 [38-41]	40 to 80	
CN(C)CCCNc1nc(CN(C)Cc2ccoc2)nc2ccccc12 [38-4]	40 to 80	
CN(C)CCCNc1nc(CN(C)Cc2ccc(C#N)cc2)nc2ccccc12 [38-20]	40 to 80	
COc1ccc(Cl)cc1NC(=O)N(C)Cc1nc(NCCCN(C)C)c2ccccc2n1 [41-30]		remaining activity at 2 µg/mL (letter rating, Examples 41 table): 40 to 80%
COC(=O)[C@@H](Nc1nc(CNC(=O)Nc2ccccc2-c2ccccc2)nc2ccccc12)C(C)C [34-41]		remaining activity at 2 µg/mL [3]: 40 to 80%
CN(C)CCCNc1nc(CN(C)C2CCC2)nc2ccccc12 [38-68]	≥ 80	
CN(C)CCCNc1nc(CN(C)Cc2cc(Cl)ccc2Cl)nc2ccccc12 [38-52]	40 to 80	
CN(C)CCCNc1nc(CN(C)C2CCC3(CC2)OCCO3)nc2ccccc12 [38-85]	20 to 40	remaining activity at 2 µg/mL [4]: 23%
CN(C)CCCNc1nc(CN(C)Cc2cccc3c2OCO3)nc2ccccc12 [38-37]	40 to 80	
COC(=O)[C@@H](Nc1nc(CNC(=O)Nc2ccc(Cl)c(Cl)c2)nc2ccccc12)C(C)C [34-39]		remaining activity at 2 µg/mL [3]: 40 to 80%
CN(C)CCCNc1nc(CN(C)Cc2ccccc2Sc2ccc(Cl)cc2)nc2ccccc12 [38-67]	40 to 80	
CN(Cc1ccccc1)Cc1nc2ccccc2c(=O)[nH]1 [Preparative Example 17, 2-[(benzylmethylamino)methyl]-3H-quinazolin-4-one]		% Residual T @ 2 ug/mL according to scintillation proximity assay (SPA) [1]: B (% Residual T values of from 20% to less than 40%)
CN(C)CCCNc1nc(CN(C)Cc2ccccc2)nc2ccccc12 [PE-19]		remaining activity at 2 µg/mL [4]: 22.2%
CN(C)CCCNc1nc(CN(C)Cc2cc3ccccc3o2)nc2ccccc12 [38-34]	40 to 80	
CN(C)CCCNc1nc(CN(C)Cc2cccc(F)c2)nc2ccccc12 [38-16]	≥ 80	
CN(C)CCCNc1nc(CN(C)C2CCN(C(=O)c3ccccc3)CC2)nc2ccccc12 [38-91]	20 to 40	remaining activity at 2 µg/mL [4]: 20.7%
CN(C)CCCNc1nc(CN(C)Cc2ccc(Oc3ccccc3)cc2)nc2ccccc12 [38-64]	40 to 80	
CN(C)CCCNc1nc(CN(C)C/C=C/c2ccccc2)nc2ccccc12 [38-21]	≥ 80	
CN(C)CCCNc1nc(CN(C)C2CCSC2)nc2ccccc12 (centres unmarked) [38-74]	40 to 80	

SMILES	remaining activity at 2 µg/mL [2] [%]	further results
COC(=O)[C@@H](Nc1nc(CNC(=O)Nc2ccccc2C(F)(F)F)nc2ccccc12)C(C)C [34-36]		remaining activity at 2 µg/mL [3]: 40 to 80%
CN(C)CCCNc1nc(CN(C)Cc2ccccc2OCC(=O)O)nc2ccccc12 [38-57]	≥ 80	
CN(C)CCCNc1nc(CN(C)Cc2cccc(C(F)(F)F)c2)nc2ccccc12 [38-48]	40 to 80	
CN(C)CCCNc1nc(CN(C)Cc2ccccc2C#N)nc2ccccc12 [38-18]	40 to 80	
COc1ccc(/C=C/c2nc(NCCCN(C)C)c3ccccc3n2)cc1 [CP-31398, reference compound]		remaining activity at 2 µg/mL [4]: 61.3%
CC1CCC(N(C)Cc2nc(NCCCN(C)C)c3ccccc3n2)CC1 (centres unmarked) [38-77]	40 to 80	
CN(C)CCCNc1nc(CN(C)Cc2cccc(Cl)c2Cl)nc2ccccc12 [38-50]	≥ 80	
CN(C)CCCNc1nc(CN(C)Cc2c(F)cccc2F)nc2ccccc12 [38-31]	40 to 80	
CN(C)CCCNc1nc(CN(C)C2CCCC(C(F)(F)F)C2)nc2ccccc12 (centres unmarked) [38-86]	40 to 80	
CN(C)CCCNc1nc(CN(C)Cc2cccc(C#N)c2)nc2ccccc12 [38-19]	40 to 80	
CNCc1nc(NCCCN(C)C)c2ccccc2n1 [Preparative Example 20, N,N-DIMETHYL-N′-[2-(METHYLAMINOMETHYL)QUINAZOLIN-4-YL]PROPANE-1,3-DIAMINE]		% Residual T @ 2 ug/mL according to scintillation proximity assay (SPA) [1]: C (% Residual T values of from 40% to less than 80%)
CN(C)CCCNc1nc(CN(C)Cc2ccco2)nc2ccccc12 [38-3]	40 to 80	
CN(C)CCCNc1nc(CN(C)C2CCCCC2)nc2ccccc12 [38-72]	40 to 80	
COc1ccc(CN(C)Cc2nc(NCCCN(C)C)c3ccccc3n2)cc1 [38-27]	40 to 80	
CN(C)CCCNc1nc(CN(C)C2C[C@@H]3CC[C@H]2C3)nc2ccccc12 (some centres unmarked) [38-75]	≥ 80	
CN(C)CCCNc1nc(CN(C)C2CCC3CCCCC3C2)nc2ccccc12 (centres unmarked) [38-83]	20 to 40	remaining activity at 2 µg/mL [4]: 28.7%
CC(C)CCN(C)Cc1nc(NCCCN(C)C)c2ccccc2n1 [38-1]	20 to 40	
CN(C)CCCNc1nc(CN(C)Cc2ccc(Cl)cc2)nc2ccccc12 [38-30]	40 to 80	
CCC(C)CN(C)Cc1nc(NCCCN(C)C)c2ccccc2n1 (centres unmarked) [38-2]	40 to 80	
COC(=O)c1ccc(CN(C)Cc2nc(NCCCN(C)C)c3ccccc3n2)cc1 [38-46]	40 to 80	
CN(C)CCCNc1nc(CN(C)Cc2ccc(-c3ccccc3)cc2)nc2ccccc12 [38-59]	≥ 80	

SMILES	remaining activity at 2 µg/mL [2] [%]	further results
CN(C)CCCNc1nc(CN(C)Cc2nccs2)nc2ccccc12 [38-10]	20 to 40	
CCOC(=O)C1CC1CN(C)Cc1nc(NCCCN(C)C)c2ccccc2n1 (centres unmarked) [38-32]	40 to 80	
CN(C)CCCNc1nc(CN(C)C2CCC(C(C)(C)C)CC2)nc2ccccc12 (centres unmarked) [38-84]	0 to 20	remaining activity at 2 µg/mL [4]: 7.8%
CC(=O)N1CCC(N(C)Cc2nc(NCCCN(C)C)c3ccccc3n2)CC1 [38-82]	40 to 80	
CC(CCN(C)Cc1nc(NCCCN(C)C)c2ccccc2n1)c1ccccc1 (centres unmarked) [38-35]	≥ 80	
CN(C)CCCNc1nc(CN(C)C2CCC(C#N)(c3ccccc3)CC2)nc2ccccc12 (centres unmarked) [38-90]	0 to 20	remaining activity at 2 µg/mL [4]: 5.5%
Cc1c(CN(C)Cc2nc(NCCCN(C)C)c3ccccc3n2)sc2ccccc12 [38-56]	20 to 40	remaining activity at 2 µg/mL [4]: 23.6%
COC(=O)[C@@H](Nc1nc(CNC(=O)Nc2cccc(Br)c2)nc2ccccc12)C(C)C [34-42]		remaining activity at 2 µg/mL [3]: 40 to 80%
CN(C)CCCNc1nc(CN(C)Cc2cccs2)nc2ccccc12 [38-8]	≥ 80	
CN(C)CCCNc1nc(CN(C)Cc2ccc3ccccc3c2)nc2ccccc12 [38-42]	40 to 80	
CN(C)CCCNc1nc(CN(C)Cc2cccn2S(=O)(=O)c2ccccc2)nc2ccccc12 [38-66]	40 to 80	
Cc1cccc(C)c1CN(C)Cc1nc(NCCCN(C)C)c2ccccc2n1 [38-24]	≥ 80	
COC(=O)[C@@H](Nc1nc(CNC(=O)Nc2cc(Cl)cc(Cl)c2)nc2ccccc12)C(C)C [34-40]		remaining activity at 2 µg/mL [3]: 40 to 80%
CC(C)C1CCC(N(C)Cc2nc(NCCCN(C)C)c3ccccc3n2)CC1 (centres unmarked) [38-81]	0 to 20	remaining activity at 2 µg/mL [4]: 13.5%
CN(Cc1ccccc1)Cc1nc2ccccc2c(=O)[nH]1 [PE-17]		remaining activity at 2 µg/mL [4]: 36.8%
CN(C)CCCNc1nc(CN(C)C2CCC(c3ccccc3)CC2)nc2ccccc12 (centres unmarked) [38-89]	20 to 40	remaining activity at 2 µg/mL [4]: 21%
CN(C)CCCNc1nc(CN(C)Cc2ccccc2C(=O)O)nc2ccccc12 [38-36]	≥ 80	
CN(C)CCC[C@H](N)C(N)=O [Preparative Example 42, 2(S)-(+)-AMINO-5-DIMETHYLAMINOPENTANAMIDE]		% Residual T @ 2 ug/mL according to scintillation proximity assay (SPA) [1]: D (% Residual T values of 80% or higher)
CN(C)CCCNc1nc(CN(C)Cc2ccc(C#Cc3ccccc3)cc2)nc2ccccc12 [38-65]	≥ 80	
CCC(C)(C)C1CCC(N(C)Cc2nc(NCCCN(C)C)c3ccccc3n2)CC1 (centres unmarked) [38-88]	0 to 20	remaining activity at 2 µg/mL [4]: 6.3%
